Structures are written as SMILES. Like-named read-outs stand apart in the source and are kept apart here.

Assay in all cases: TGFα-shedding assay-based GPCR screening with chimeric Gα subunit proteins
Holding throughout (assay type): cell-based
What all share (settings): 10µM, Favipiravir 100μM

Assay [1] concerns the target T1, 348 GPCRs (Homo sapiens, UniProt O14626).
T1 construct: expressed in transfected cells; host or cells: HEK293A
T1 sequence (O14626 1-319): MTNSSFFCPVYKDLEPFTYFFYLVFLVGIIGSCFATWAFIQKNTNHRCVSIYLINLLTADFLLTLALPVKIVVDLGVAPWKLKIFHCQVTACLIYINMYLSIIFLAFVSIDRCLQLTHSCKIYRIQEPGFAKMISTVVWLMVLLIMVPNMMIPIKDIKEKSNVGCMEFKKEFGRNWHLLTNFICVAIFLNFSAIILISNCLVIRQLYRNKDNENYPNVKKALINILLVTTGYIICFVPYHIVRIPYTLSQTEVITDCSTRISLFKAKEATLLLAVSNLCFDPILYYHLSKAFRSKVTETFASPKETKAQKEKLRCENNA

Assay [2] has as its target 348 GPCRs (Homo sapiens, UniProt Q9H228).
In assay [3] the target is T2, 348 GPCRs (Homo sapiens, UniProt Q14831).
T2 construct: expressed in transfected cells; host or cells: HEK293A
T2 sequence (Q14831 35-915): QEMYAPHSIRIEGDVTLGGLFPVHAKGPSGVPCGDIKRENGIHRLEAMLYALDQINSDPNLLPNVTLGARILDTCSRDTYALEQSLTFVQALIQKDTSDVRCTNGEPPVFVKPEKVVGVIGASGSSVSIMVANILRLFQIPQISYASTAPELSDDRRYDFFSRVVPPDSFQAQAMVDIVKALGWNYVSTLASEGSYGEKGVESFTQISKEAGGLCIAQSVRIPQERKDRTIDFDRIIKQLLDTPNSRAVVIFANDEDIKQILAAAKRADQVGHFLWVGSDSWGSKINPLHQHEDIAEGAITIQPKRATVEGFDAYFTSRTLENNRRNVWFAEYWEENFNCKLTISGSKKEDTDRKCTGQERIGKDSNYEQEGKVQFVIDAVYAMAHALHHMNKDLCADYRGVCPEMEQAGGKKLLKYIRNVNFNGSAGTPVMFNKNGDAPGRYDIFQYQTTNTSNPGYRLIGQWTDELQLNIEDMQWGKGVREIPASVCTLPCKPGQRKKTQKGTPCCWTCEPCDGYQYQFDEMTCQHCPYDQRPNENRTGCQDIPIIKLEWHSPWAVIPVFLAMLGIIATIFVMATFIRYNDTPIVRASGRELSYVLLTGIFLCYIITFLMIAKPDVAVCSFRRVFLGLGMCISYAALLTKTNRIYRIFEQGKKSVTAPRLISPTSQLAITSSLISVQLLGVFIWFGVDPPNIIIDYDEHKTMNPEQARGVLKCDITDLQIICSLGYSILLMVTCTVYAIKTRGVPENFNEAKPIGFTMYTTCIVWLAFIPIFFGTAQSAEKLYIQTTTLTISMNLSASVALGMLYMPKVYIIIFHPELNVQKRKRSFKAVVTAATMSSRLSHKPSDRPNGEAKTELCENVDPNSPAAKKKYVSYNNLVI

For assay [4], the target named is T3, 348 GPCRs (Homo sapiens, UniProt P43657).
T3 construct: expressed in transfected cells; host or cells: HEK293A
T3 sequence (P43657 1-344): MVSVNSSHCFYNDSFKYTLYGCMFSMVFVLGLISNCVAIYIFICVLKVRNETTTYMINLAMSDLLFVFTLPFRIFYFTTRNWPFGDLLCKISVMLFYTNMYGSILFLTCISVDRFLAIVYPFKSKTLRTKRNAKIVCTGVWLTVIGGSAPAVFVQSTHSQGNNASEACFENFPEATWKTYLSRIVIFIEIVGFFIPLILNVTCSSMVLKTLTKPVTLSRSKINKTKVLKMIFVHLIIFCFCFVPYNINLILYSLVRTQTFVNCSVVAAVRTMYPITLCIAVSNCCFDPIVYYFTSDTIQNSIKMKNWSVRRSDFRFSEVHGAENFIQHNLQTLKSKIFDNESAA

The target of assay [5] is T4, 348 GPCRs (Homo sapiens, UniProt P25090).
T4 sequence (P25090 1-351): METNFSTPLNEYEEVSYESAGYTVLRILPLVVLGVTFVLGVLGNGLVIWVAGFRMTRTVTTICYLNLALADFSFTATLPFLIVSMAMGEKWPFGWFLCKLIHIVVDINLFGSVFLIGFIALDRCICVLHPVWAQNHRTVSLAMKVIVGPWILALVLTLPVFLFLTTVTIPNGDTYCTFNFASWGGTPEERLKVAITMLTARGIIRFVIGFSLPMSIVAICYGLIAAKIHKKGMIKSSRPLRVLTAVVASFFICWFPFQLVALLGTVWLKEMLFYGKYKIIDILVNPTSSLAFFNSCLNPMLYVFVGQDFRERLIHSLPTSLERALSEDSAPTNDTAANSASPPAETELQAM

The target in assay [6] is T5, 348 GPCRs (Homo sapiens, UniProt P25089).
T5 construct: expressed in transfected cells; host or cells: HEK293A
T5 sequence (P25089 1-353): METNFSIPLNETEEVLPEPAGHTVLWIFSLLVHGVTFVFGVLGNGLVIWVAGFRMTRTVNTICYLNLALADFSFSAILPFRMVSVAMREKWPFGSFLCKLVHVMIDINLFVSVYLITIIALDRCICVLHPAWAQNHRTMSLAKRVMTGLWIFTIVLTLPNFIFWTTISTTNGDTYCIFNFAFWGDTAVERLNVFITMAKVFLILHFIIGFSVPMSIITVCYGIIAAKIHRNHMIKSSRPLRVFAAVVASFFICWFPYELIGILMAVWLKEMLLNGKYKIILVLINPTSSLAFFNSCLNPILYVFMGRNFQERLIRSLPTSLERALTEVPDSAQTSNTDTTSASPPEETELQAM

Setting [7] is: read-out: % GPCR activation compared to TPA, GPR171 (G Protein-Coupled Receptor 171).
[8] abbreviates: read-out: % GPCR activation compared to TPA, S1PR5 (sphingosine-1-phosphate receptor 5).
Where [9] appears, read: read-out: % GPCR activation compared to TPA, GRM7 (glutamate receptor, metabotropic 7).
[10] abbreviates: read-out: % GPCR activation compared to TPA, LPAR6 (lysophosphatidic acid receptor 6).
Setting [11] is: read-out: % GPCR activation compared to TPA, FPR2 (formyl peptide receptor 2).
Setting [12] is: read-out: % GPCR activation compared to TPA, FPR3 (formyl peptide receptor 3).
[13] abbreviates: GPR171 (G Protein-Coupled Receptor 171), read-out: % GPCR activation compared to TPA.
Setting [14] is: S1PR5 (sphingosine-1-phosphate receptor 5), read-out: % GPCR activation compared to TPA.
The mark [15] stands for this setting: GRM7 (glutamate receptor, metabotropic 7), read-out: % GPCR activation compared to TPA.
[16] abbreviates: LPAR6 (lysophosphatidic acid receptor 6), read-out: % GPCR activation compared to TPA.
Where [17] appears, read: FPR2 (formyl peptide receptor 2), read-out: % GPCR activation compared to TPA.
[18] abbreviates: FPR3 (formyl peptide receptor 3), read-out: % GPCR activation compared to TPA.

348 GPCRs (Homo sapiens, UniProt Q9H228), sequence (Q9H228 whole entry): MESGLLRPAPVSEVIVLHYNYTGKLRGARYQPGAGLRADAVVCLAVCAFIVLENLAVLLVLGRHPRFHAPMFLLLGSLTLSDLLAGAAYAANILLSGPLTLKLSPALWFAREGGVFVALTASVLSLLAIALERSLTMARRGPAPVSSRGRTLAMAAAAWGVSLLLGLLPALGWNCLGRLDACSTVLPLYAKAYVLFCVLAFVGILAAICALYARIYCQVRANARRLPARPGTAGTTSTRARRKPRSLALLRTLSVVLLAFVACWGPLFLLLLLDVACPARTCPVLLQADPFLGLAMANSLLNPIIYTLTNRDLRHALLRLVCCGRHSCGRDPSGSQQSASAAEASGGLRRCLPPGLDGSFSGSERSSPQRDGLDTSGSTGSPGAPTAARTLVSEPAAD

Consider `CC(C)OC(=O)[C@H](C)N[P@](=O)(OC[C@H]1O[C@@H](n2ccc(=O)[nH]c2=O)[C@](C)(F)[C@@H]1O)Oc1ccccc1` [sofosbuvir], for which the activation at 10 µM was -0.832% at 348 GPCRs [1] (setting [7]), -0.326% on 348 GPCRs [2] (setting [8]), 10.4% on 348 GPCRs [3] (setting [9]) and 0.0867% at 348 GPCRs [4] (setting [10]). Moreover, the activation at 100 µM at 348 GPCRs [5] (setting [11]) was -1.57%; at 348 GPCRs [6] (setting [12]), -0.773%.

For the compound `NC(=O)c1nc(F)cnc1O` [favipiravir, 6-fluoro-3-hydroxy-2-pyrazinecarboxamide], the activation at 10 µM at 348 GPCRs [1] (setting [13]) is -0.909%; at 348 GPCRs [2] (setting [14]), 1.49%; on 348 GPCRs [3] (setting [15]), -0.143%; at 348 GPCRs [4] (setting [16]) it was -2.1%. Also, the figures for the activation at 100 µM on 348 GPCRs [5] (setting [17]) and at 348 GPCRs [6] (setting [18]) were -3.31% and 0.4%, respectively.

In the case of `CCC(CC)COC(=O)[C@H](C)N[P@](=O)(OC[C@H]1O[C@@](C#N)(c2ccc3c(N)ncnn23)[C@H](O)[C@@H]1O)Oc1ccccc1` [remdesivir], the activation at 10 µM was 2.61% at 348 GPCRs [1] (setting [7]), -1.2% on 348 GPCRs [2] (setting [8]), -0.738% at 348 GPCRs [3] (setting [9]) and -2.67% on 348 GPCRs [4] (setting [10]). The activation at 100 µM on 348 GPCRs [5] (setting [11]) is -0.745%; at 348 GPCRs [6] (setting [12]), 3.79%.

Take `N#C[C@@]1(c2ccc3c(N)ncnn23)O[C@H](CO)[C@@H](O)[C@H]1O` [GS441524]: the activation at 10 µM is -1.42% on 348 GPCRs [1] (setting [13]), -0.465% at 348 GPCRs [2] (setting [14]), 1.06% at 348 GPCRs [3] (setting [15]) and -2.57% at 348 GPCRs [4] (setting [16]). For the same compound, the activation at 100 µM at 348 GPCRs [5] (setting [17]) is -0.97%; on 348 GPCRs [6] (setting [18]) it was 2.5%.

For `CC(C)C(=O)OC[C@H]1O[C@@H](n2ccc(NO)nc2=O)[C@H](O)[C@@H]1O` [molnupiravir], the activation at 10 µM was -2.4% on 348 GPCRs [1] (setting [13]), -0.945% at 348 GPCRs [2] (setting [14]), -1.87% at 348 GPCRs [3] (setting [15]) and -2.83% on 348 GPCRs [4] (setting [16]). Further, the activation at 100 µM on 348 GPCRs [5] (setting [17]) was -1.5%; on 348 GPCRs [6] (setting [18]) it was -1.95%.

For the origin of these results see PMC10175918 (Communications Biology, 2023).
